Experiment [1] has as its target Vascular endothelial growth factor receptor 1 (Homo sapiens) (UniProt P17948). Briefly: Selectivity interaction (ProQinase) EUB0000171b FLT1.
Experiment [2] has as its target LIM domain kinase 1 (Homo sapiens) (UniProt P53667). Briefly: Selectivity interaction (ProQinase) EUB0000171b LIMK1.
The test system of experiment [3] is Tyrosine-protein kinase ABL1 (Homo sapiens), P00519 [Q252H]. Briefly: Selectivity interaction (KinomeScan (DiscoverX)) EUB0000655a ABL1. The conditions noted are these: at 10 µM.
Experiment [4] has as its target Serine/threonine-protein kinase PRP4 homolog (Homo sapiens) (UniProt Q13523). Nature of the experiment: Selectivity interaction (KinomeScan (DiscoverX)) EUB0000045b PRPF4B.
For experiment [5], the system named is Tyrosine-protein kinase ABL1 (Homo sapiens), P00519 [Q252H]. Nature of the experiment: Selectivity interaction (KinomeScan (DiscoverX)) EUB0000045b ABL1. Conditions: at 10 µM.
The target in experiment [6] is Tyrosine-protein kinase JAK2 (Homo sapiens, UniProt O60674). Briefly: (§1) Selectivity interaction (SelectScreen profiling (Invitrogen)) EUB0000607a JAK2. The conditions noted are these: at 2 µM.
Chain of Tyrosine-protein kinase JAK2 (O60674 whole entry): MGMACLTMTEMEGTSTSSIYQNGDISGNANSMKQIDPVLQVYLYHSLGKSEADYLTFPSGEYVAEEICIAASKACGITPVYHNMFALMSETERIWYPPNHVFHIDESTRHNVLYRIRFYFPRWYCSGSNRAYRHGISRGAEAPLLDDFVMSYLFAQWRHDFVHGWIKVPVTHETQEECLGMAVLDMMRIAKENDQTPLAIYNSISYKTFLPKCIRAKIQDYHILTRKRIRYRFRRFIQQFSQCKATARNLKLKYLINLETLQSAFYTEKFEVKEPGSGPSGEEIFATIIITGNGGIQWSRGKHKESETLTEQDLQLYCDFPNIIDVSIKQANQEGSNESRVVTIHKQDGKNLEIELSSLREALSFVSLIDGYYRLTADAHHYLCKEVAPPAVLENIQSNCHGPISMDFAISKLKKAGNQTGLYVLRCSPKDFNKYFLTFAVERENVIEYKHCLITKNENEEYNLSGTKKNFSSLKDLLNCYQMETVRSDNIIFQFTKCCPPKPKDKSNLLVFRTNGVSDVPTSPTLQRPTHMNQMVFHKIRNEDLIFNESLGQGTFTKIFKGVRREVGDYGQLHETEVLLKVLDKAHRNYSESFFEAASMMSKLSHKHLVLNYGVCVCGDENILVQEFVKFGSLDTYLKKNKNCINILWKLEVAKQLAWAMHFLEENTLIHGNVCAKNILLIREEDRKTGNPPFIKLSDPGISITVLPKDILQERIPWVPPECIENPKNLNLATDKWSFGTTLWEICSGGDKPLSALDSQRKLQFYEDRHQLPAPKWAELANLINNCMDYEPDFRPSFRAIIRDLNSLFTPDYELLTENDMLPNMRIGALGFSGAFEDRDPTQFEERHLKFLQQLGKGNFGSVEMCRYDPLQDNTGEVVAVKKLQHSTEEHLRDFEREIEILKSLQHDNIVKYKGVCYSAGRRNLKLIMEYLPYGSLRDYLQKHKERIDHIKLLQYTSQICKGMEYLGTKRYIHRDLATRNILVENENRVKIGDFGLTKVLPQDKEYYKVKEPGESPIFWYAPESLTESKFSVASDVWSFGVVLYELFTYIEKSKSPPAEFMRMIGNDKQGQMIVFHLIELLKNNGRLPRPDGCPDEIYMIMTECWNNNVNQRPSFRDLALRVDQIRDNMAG
Experiment [7] relates to Tyrosine-protein kinase JAK2 (Homo sapiens), O60674 [V617F]. The experiment is described as §1. The conditions noted are these: at 2 µM.
Chain of Tyrosine-protein kinase JAK2 (Homo sapiens), O60674 [V617F] (O60674 whole entry V617F): as the sequence (O60674 whole entry) above, with V617F counted along it
Experiment [8] deals with T1, Serine/threonine-protein kinase Nek1 (Homo sapiens) (UniProt Q96PY6).
T1 sequence (whole entry): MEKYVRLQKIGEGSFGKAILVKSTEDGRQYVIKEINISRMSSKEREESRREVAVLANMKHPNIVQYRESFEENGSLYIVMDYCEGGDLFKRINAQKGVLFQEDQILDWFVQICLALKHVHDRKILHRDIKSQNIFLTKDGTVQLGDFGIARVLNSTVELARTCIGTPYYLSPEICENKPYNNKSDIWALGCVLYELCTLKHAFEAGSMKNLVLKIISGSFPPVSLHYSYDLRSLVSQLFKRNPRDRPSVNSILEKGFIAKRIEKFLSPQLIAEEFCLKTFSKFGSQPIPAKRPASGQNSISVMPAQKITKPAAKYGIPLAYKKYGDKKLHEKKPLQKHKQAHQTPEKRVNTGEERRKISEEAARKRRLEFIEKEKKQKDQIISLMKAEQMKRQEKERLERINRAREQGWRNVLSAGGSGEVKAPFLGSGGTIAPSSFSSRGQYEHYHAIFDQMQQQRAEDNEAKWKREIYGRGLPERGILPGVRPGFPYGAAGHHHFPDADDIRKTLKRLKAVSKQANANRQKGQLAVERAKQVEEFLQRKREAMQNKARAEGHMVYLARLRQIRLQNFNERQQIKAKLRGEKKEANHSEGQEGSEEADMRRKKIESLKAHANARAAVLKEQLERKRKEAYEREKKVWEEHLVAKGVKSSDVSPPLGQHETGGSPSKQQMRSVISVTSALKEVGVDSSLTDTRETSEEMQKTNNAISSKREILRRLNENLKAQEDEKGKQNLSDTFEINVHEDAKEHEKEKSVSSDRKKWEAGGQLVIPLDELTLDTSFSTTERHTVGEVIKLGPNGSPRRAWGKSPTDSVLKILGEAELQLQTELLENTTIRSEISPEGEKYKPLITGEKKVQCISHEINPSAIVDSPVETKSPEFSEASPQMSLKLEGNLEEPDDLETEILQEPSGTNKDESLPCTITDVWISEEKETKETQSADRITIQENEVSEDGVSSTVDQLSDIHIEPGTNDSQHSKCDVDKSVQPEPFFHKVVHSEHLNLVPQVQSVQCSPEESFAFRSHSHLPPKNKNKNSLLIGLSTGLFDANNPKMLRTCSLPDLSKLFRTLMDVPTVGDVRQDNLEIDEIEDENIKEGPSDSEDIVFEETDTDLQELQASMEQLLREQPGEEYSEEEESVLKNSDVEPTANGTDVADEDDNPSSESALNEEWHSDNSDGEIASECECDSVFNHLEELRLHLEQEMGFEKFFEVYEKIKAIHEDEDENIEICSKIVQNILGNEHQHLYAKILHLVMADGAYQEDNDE
Briefly: Selectivity interaction (SelectScreen profiling (Invitrogen)) EUB0000607a NEK1. The conditions noted are these: at 2 µM.

Experiment [9] concerns the target Ribosomal protein S6 kinase alpha-1 (Homo sapiens, UniProt Q15418). Nature of the experiment: Selectivity interaction (ActivX KiNativ screen (kinase selectivity in THP-1 cell lysates)) EUB0000639a RPS6KA1. Format: subcellular. Conditions: lysate, at 0.01 µM.
The target in experiment [10] is MAP/microtubule affinity-regulating kinase 3 (Homo sapiens) (UniProt P27448). Briefly: Selectivity interaction (ActivX KiNativ screen (kinase selectivity in THP-1 cell lysates)) EUB0000639a MARK3. The conditions noted are these: lysate, at 0.04 µM. Format: subcellular.
Chain of MAP/microtubule affinity-regulating kinase 3 (Homo sapiens) (P27448 whole entry, looked up): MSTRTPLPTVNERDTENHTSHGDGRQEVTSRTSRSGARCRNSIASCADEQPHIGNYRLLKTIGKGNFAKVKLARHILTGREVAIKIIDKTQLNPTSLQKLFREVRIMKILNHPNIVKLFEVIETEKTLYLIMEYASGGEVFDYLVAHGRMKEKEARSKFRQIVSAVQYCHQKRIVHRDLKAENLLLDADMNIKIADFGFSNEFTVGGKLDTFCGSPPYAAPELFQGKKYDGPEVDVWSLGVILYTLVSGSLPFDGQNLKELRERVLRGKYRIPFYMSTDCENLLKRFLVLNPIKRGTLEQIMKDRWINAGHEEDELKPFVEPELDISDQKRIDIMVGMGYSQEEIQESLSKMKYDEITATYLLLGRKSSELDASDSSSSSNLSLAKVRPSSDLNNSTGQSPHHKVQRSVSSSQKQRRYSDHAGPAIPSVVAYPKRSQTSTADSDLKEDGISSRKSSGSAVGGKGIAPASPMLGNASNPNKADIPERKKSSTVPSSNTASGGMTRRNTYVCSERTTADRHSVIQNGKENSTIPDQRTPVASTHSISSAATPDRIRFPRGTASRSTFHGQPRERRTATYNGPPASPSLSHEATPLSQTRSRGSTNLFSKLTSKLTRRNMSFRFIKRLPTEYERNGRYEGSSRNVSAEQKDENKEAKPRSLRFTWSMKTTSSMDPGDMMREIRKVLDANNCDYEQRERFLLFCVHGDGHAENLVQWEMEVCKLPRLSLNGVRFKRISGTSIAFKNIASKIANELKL
Experiment [11] addresses T2, MAP/microtubule affinity-regulating kinase 4 (Homo sapiens) (UniProt Q96L34).
T2 sequence (whole entry): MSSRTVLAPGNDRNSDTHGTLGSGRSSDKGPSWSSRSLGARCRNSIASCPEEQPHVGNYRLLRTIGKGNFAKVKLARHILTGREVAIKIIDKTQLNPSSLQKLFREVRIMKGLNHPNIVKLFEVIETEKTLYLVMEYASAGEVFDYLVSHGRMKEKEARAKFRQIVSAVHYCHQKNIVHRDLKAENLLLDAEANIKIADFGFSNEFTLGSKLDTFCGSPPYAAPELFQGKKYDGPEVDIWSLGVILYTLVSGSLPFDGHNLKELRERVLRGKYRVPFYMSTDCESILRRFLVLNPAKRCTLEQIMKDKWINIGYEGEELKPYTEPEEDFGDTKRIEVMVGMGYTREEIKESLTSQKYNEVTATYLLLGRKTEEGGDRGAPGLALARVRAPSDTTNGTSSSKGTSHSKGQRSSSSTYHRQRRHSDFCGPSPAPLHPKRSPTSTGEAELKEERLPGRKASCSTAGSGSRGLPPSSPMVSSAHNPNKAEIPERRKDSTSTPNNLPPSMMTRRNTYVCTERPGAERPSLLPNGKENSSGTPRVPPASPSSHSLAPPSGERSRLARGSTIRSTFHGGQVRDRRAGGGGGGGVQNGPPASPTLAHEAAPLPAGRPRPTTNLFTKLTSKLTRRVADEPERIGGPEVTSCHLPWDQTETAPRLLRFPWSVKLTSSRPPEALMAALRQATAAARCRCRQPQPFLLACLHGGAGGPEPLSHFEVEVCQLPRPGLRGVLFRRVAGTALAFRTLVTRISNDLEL
Nature of the experiment: Selectivity interaction (ActivX KiNativ screen (kinase selectivity in THP-1 cell lysates)) EUB0000639a MARK4. The experiment is classed as subcellular. Conditions: lysate.

Molecules are shown by their SMILES.

Chain of Serine/threonine-protein kinase PRP4 homolog (Homo sapiens) (Q13523 whole entry): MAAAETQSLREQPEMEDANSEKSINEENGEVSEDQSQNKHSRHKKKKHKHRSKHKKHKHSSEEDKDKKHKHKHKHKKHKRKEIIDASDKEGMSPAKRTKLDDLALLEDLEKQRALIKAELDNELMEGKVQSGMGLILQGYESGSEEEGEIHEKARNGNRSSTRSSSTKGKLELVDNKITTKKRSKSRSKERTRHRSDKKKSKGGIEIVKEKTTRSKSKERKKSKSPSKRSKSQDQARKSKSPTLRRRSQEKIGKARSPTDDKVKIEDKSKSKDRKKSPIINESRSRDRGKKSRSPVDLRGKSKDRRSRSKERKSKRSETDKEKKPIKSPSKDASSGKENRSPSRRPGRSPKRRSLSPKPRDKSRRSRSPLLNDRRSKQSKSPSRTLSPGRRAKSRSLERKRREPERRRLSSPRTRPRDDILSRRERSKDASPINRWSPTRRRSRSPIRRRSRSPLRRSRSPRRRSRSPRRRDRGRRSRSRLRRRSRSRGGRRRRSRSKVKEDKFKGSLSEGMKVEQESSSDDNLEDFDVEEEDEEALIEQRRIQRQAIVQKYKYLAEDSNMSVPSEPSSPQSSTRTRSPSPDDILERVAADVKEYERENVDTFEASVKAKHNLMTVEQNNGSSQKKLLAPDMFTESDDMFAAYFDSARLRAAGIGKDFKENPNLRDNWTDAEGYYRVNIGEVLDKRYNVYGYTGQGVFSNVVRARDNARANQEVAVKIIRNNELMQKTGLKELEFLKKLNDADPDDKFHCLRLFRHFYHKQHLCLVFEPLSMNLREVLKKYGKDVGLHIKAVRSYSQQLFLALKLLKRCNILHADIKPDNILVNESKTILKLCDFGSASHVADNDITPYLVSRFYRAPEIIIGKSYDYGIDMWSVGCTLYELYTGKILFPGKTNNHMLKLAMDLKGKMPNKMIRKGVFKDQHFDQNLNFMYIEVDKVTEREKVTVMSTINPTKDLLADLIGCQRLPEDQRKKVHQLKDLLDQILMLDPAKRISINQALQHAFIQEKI
Chain of LIM domain kinase 1 (Homo sapiens) (P53667 whole entry, looked up, the tested form may be a part): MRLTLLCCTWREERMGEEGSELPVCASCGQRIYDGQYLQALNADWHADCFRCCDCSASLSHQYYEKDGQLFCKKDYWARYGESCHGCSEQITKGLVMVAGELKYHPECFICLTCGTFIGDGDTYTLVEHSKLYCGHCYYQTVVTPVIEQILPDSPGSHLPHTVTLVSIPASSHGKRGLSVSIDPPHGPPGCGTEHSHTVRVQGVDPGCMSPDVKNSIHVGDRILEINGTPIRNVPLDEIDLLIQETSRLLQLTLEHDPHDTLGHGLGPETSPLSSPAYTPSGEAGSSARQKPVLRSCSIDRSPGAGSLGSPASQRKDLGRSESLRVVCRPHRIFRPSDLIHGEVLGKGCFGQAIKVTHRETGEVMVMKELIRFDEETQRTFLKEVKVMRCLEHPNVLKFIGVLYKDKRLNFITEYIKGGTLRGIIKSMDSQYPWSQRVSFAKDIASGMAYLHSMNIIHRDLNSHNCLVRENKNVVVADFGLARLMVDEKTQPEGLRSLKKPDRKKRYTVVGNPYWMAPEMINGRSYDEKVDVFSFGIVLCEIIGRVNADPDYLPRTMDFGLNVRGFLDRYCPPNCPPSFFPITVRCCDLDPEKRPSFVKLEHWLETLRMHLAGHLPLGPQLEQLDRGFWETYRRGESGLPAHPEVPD
Chain of Vascular endothelial growth factor receptor 1 (Homo sapiens) (P17948 whole entry, the tested form may be a part): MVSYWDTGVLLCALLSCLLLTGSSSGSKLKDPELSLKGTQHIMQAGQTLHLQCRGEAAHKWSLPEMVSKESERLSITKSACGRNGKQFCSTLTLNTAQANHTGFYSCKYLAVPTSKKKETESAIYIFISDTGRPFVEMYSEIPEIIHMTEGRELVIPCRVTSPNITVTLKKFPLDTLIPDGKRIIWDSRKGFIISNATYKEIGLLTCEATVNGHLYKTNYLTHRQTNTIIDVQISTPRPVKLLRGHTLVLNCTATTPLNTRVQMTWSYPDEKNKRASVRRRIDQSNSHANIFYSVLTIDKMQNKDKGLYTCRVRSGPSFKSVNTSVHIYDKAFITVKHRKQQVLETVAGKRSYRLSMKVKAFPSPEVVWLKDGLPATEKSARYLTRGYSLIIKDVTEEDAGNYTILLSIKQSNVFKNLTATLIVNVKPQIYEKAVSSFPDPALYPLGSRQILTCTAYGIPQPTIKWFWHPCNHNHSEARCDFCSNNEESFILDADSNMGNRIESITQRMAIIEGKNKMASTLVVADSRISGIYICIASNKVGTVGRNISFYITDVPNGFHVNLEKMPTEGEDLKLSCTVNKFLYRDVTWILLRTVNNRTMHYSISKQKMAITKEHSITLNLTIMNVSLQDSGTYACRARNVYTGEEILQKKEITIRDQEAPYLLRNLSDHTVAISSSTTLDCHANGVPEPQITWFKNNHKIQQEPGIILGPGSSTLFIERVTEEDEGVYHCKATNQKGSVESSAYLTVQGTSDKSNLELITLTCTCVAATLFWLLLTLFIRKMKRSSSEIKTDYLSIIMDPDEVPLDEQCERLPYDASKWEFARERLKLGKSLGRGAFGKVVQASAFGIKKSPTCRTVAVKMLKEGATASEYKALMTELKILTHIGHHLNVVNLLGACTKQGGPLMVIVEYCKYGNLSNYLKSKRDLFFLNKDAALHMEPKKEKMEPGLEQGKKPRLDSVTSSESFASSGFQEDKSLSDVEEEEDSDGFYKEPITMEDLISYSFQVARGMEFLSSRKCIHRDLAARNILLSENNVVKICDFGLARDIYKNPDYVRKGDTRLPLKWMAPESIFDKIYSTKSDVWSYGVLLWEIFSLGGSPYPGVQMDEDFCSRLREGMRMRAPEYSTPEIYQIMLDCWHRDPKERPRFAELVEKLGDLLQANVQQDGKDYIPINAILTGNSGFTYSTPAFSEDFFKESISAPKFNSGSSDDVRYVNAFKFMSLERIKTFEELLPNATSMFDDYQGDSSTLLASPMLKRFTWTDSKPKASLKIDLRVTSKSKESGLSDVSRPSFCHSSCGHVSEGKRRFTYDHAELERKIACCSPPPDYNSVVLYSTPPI

For the compound `C=CC(=O)Nc1cccc(C(=O)Nc2ccc(Nc3cc(-c4[nH]c(SC)nc4C)ccn3)cc2)c1`, the % of control was found to be 84% in experiment [1] (at 1 µM), 66% in [1] (at 5 µM), 72% in experiment [2] (at 1 µM) and 46% in [2] (at 5 µM).
On to `CN(C)CCOc1ccc(-c2nc(-c3ccncc3)c(-c3ccc4c(c3)CC/C4=N\O)[nH]2)cc1`, for which the % of control in experiment [3] came out at 3.8%.
As for `C=CC(=O)Nc1cc(-n2c(=O)ccc3cnc4ccc(-c5ccc(NS(C)(=O)=O)cc5)cc4c32)ccc1C`, the % of control in [4] (at 1 µM) worked out at 95%; in experiment [4] (at 10 µM) it was 89%; in experiment [5] it was 75%.
For the compound `CNC(=O)Nc1ccc(-c2nc(N3CC4CCC(C3)O4)c3cnn(C4CCC5(CC4)OCCO5)c3n2)cc1`, the % of inhibition in experiment [6] was -3%; in [7], 4%; in [8], 7%.
As for `CC[C@@H]1[C@H](F)C(=O)N[C@@H]1COc1nccc2cc(C(N)=O)c(OC)cc12` [ZIMLOVISERTIB], the % of inhibition in experiment [9] is 3.6%; in [10], -13.3%; in experiment [11] (at 0.01 µM) it was 10.4%; in experiment [11] (at 0.04 µM), 9.1%; in experiment [11] (at 0.2 µM), 19.8%; in experiment [11] (at 1 µM) it was 21.6%. In experiment [11] (at 5 µM), the % of inhibition turned out to be 36.9%.

The record behind these values is ChEMBL document CHEMBL5465560, “Selectivity Literature for EUbOPEN Chemogenomic Library” (2024).
